From BindingDB's records for doi:10.1021/jm00091a008 (Alter, 1992)

target: Voltage-dependent L-type calcium channel subunit alpha-1C (Oryctolagus cuniculus, UniProt P15381); test: ChEBML_164619
Text: Blockade of calcium-evoked contractions in depolarized aortic strips

Chain of Voltage-dependent L-type calcium channel subunit alpha-1C (P15381 whole entry): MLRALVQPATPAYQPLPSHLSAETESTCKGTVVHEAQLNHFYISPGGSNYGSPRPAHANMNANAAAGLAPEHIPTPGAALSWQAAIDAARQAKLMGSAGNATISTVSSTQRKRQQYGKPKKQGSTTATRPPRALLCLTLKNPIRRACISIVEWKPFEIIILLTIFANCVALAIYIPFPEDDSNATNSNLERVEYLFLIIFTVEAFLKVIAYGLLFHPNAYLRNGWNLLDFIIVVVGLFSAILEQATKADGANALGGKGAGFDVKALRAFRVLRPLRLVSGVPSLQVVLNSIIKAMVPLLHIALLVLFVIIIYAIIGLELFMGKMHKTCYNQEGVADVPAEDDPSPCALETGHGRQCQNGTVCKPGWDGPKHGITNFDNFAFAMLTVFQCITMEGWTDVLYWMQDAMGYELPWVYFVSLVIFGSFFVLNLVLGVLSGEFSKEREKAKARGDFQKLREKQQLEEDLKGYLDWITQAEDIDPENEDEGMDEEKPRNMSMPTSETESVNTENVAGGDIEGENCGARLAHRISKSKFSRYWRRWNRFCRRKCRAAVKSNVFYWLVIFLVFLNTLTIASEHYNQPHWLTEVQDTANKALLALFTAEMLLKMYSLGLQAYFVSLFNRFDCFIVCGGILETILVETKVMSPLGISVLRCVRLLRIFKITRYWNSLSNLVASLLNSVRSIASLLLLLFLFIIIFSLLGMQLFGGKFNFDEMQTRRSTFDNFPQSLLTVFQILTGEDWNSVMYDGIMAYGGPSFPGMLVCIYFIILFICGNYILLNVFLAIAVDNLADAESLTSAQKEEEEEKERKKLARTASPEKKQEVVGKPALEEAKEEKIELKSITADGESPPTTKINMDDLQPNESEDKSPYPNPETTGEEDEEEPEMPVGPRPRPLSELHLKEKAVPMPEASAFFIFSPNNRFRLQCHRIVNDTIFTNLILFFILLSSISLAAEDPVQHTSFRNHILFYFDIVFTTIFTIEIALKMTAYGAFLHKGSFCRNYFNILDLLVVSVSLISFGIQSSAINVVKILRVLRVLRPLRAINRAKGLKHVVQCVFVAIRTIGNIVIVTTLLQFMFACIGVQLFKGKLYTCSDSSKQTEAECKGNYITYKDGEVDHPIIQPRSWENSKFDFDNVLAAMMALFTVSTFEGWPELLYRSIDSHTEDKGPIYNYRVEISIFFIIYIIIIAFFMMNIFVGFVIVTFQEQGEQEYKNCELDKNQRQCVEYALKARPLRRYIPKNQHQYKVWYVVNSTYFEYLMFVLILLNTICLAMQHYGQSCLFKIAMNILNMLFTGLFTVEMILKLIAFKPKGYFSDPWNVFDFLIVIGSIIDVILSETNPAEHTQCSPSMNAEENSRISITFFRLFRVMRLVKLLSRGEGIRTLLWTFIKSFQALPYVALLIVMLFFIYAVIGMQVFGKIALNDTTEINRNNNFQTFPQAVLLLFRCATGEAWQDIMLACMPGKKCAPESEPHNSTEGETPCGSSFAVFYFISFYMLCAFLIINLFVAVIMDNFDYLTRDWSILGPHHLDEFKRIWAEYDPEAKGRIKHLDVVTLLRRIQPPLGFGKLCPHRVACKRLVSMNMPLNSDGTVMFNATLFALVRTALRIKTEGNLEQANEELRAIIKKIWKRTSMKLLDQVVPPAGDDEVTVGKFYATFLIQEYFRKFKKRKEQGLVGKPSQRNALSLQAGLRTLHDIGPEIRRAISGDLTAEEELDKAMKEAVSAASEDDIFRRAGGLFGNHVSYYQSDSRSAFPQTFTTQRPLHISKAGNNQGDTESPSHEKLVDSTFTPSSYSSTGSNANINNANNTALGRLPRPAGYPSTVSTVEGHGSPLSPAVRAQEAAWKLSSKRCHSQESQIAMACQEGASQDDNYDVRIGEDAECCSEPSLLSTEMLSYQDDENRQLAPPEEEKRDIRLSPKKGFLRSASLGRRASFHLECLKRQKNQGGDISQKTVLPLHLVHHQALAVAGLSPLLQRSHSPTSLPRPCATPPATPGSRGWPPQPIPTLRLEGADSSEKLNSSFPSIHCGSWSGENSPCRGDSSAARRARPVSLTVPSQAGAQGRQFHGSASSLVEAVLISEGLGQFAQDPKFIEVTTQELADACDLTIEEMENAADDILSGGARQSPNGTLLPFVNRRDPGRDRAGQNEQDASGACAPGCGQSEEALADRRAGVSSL

IC50 | Compound
0.025 µM | CC1=NC(C)=C(C(=O)OCC2CCCCO2)C(c2ccccc2[N+](=O)[O-])C1=C(O)OCN1C(=O)c2ccccc2S1(=O)=O (centres undefined)
0.0051 µM | COC(=O)C1C(C)=NC(C)=C(C(=O)OCN2C(=O)c3ccccc3S2(=O)=O)C1c1cccc(Cl)c1Cl (centres undefined)
0.0029 µM | COCCOC(=O)C1C(C)=NC(C)=C(C(=O)OCN2C(=O)c3ccccc3S2(=O)=O)C1c1cccc(Cl)c1Cl (centres undefined)
0.025 µM | CC1=NC(C)=C(C(=O)OCC2CCCO2)C(c2cccc([N+](=O)[O-])c2)C1=C(O)OCN1C(=O)c2ccccc2S1(=O)=O (centres undefined)
